Test results: patent US5028715A, “Radioprotective agents and their method of manufacture” (priority 1989, dated 1991)
Read-outs that look alike come from different tables or passages of the source.

Tests used:
Format in all cases: in vivo
test mice [1] = assay: Radioprotective activity in mice against LD100 of γ-radiation (1000 RAD) (Table II); settings: for toxicity (in words): at the levels used in this test; for protection against LD100 dose of irradiation (in words): dose level near the LD50 (50 mg/kg), all the mice survived
test mice [2] = assay: Acute toxicity in mice (Table I); settings: vehicle H2O
Protocol: (§1) Radioprotective Agents A, B, C, and D were tested for acute toxicity and radioprotective activity using test mice at various dosage levels against LD100 of γ-radiation. The agents were administered interperitoneally (ip).

[3] = Acute toxicity in mice (Table I); settings: mouse, in vivo; for survival: read-out: Survivors (%); for LD50: mice, ip
Protocol: as §1

[4] = 75 mg/kg ip, 30 min before 1000 RAD
[5] = 150 mg/kg ip, 30 min before 1000 RAD
[6] = 300 mg/kg ip, 30 min before 1000 RAD
[7] = 300 mg/kg po, 30 min before 1000 RAD
[8] = 600 mg/kg po, 30 min before 1000 RAD
[9] = 1200 mg/kg po, 30 min before 1000 RAD
[10] = 18.75 mg/kg ip, 30 min before 1000 RAD
[11] = 37.5 mg/kg ip, 30 min before 1000 RAD
[12] = 54.3 mg/kg ip, 30 min before 1000 RAD
[13] = 109 mg/kg ip, 30 min before 1000 RAD
[14] = 217 mg/kg ip, 30 min before 1000 RAD
[15] = 435 mg/kg ip, 30 min before 1000 RAD
[16] = 55.1 mg/kg ip, 0 min before 1000 RAD
[17] = 110.3 mg/kg ip, 0 min before 1000 RAD
[18] = 220.6 mg/kg ip, 0 min before 1000 RAD
[19] = 441 mg/kg ip, 0 min before 1000 RAD

| SMILES | Drug Related Lethality (test mice [1]; [4]) | Survivors (%) (test mice [1]; [4]) | toxicity (in words) (test mice [1]) | Deaths (test mice [2]; 75 mg/kg ip) | Deaths (test mice [2]; 150 mg/kg ip) | Deaths (test mice [2]; 300 mg/kg ip) | Deaths (test mice [2]; 600 mg/kg ip) | survival ([3]; 75 mg/kg ip, vehicle H2O) | survival ([3]; 150 mg/kg ip, vehicle H2O) | survival ([3]; 300 mg/kg ip, vehicle H2O) | survival ([3]; 600 mg/kg ip, vehicle H2O) | protection against LD100 dose of irradiation (in words) (test mice [1]) | survival ([3]; 37.5 mg/kg ip, vehicle H2O) | LD50 [3] | other results |
| --- | --- | --- | --- | --- | --- | --- | --- | --- | --- | --- | --- | --- | --- | --- | --- |
| NCCCN1CCSC1c1ccc([N+](=O)[O-])cc1 (stereo not drawn) [A] | 0/10 | 20% | toxic | 0/5 | 0/5 | 2/5 | 5/5 | 100% | 100% | 60% | 0% |  |  |  | Drug Related Lethality (test mice [1]; [5]): 0/10; Survivors (%) (test mice [1]; [5]): 30%; Drug Related Lethality (test mice [1]; [6]): 5/10; Survivors (%) (test mice [1]; [6]): 40%; Drug Related Lethality (test mice [1]; [7]): 0/10; Survivors (%) (test mice [1]; [7]): 0%; Drug Related Lethality (test mice [1]; [8]): 0/10; Survivors (%) (test mice [1]; [8]): 0%; Drug Related Lethality (test mice [1]; [9]): 7/10; Survivors (%) (test mice [1]; [9]): 0% |
| COc1ccc(C2SCCN2CCCN)cc1 (stereo not drawn) [B] | 0/10 | 20% | toxic | 0/5 | 4/5 | 5/5 | 5/5 | 100% | 20% | 0% | 0% |  |  |  | Drug Related Lethality (test mice [1]; [10]): 0/10; Survivors (%) (test mice [1]; [10]): 0%; Drug Related Lethality (test mice [1]; [11]): 0/10; Survivors (%) (test mice [1]; [11]): 0% |
| COc1ccc(C2SCCN2CCCN)cc1OC (stereo not drawn) [C] |  |  |  | 5/5 | 5/5 | 5/5 |  | 0% | 0% | 0% |  | complete protection | 100% | 50 mg/kg | Drug Related Lethality (test mice [1]; [12]): 0/5; Survivors (%) (test mice [1]; [12]): 100%; Drug Related Lethality (test mice [1]; [13]): 5/5; Survivors (%) (test mice [1]; [13]): 0%; Drug Related Lethality (test mice [1]; [14]): 5/5; Survivors (%) (test mice [1]; [14]): 0%; Drug Related Lethality (test mice [1]; [15]): 5/5; Survivors (%) (test mice [1]; [15]): 0%; mortality ([3]; 37.5 mg/kg ip, vehicle H2O, read-out: Deaths): 50% |
| NCCCN1CCSC1c1ccc2c(c1)OCO2 (stereo not drawn) [D] |  |  |  | 5/5 | 5/5 | 5/5 |  | 0% | 0% | 0% |  | complete protection | 100% | 50 mg/kg | Drug Related Lethality (test mice [1]; [16]): 0/5; Survivors (%) (test mice [1]; [16]): 100%; Drug Related Lethality (test mice [1]; [17]): 5/5; Survivors (%) (test mice [1]; [17]): 0%; Drug Related Lethality (test mice [1]; [18]): 5/5; Survivors (%) (test mice [1]; [18]): 0%; Drug Related Lethality (test mice [1]; [19]): 5/5; Survivors (%) (test mice [1]; [19]): 0%; Deaths (test mice [2]; 37.5 mg/kg ip): 0/5 |
